Experimental data published in US10463735B2, “Method and apparatus for adjusting corneal curvature through digital corneal crosslinking” (ZHEJIANG UNIVERSITY, priority 2016, dated 2019).

Test system: cornea
Assay: Digital corneal crosslinking: photoinitiator solution dropped on the cornea, then selective local irradiation through a digital micromirror device
Assay type: in vivo
Protocol: A digital corneal crosslinking method to adjust the corneal curvature wherein a composition comprising a photoinitiator compound is administered to the corneal stromal of the subject, and the corneal is selectively and locally irradiated by utilizing digital micromirror device (DMD) controlled by a computer, whereby the corneal curvature is altered.
(§1) The epithelial tissue of an area of 7 mm diameter in the middle of the cornea was removed after superficial anesthesia. A dextran solution of 200 g/L with 1 g/L riboflavin was dropped to corneal surface in batches. The location of the riboflavin diffused into the corneal surface was observed by cobalt blue light of a slit lamp. Digital corneal crosslinking device was used to selectively irradiate the local area of the cornea. The light's wavelength is 365 nm, the irradiation area is shown in FIG. 2, the light power is 1.2 mW/cm^2, irradiation time is 5 minutes.
During irradiation process, a photoinitiator solution and superficial anesthesia were used to wash the corneal surface in phases. Antibiotic eye formulations were applied to the eye and corneal contact lens were used until the corneal epithelium was healed.
The epithelial tissue of an area of 7 mm diameter in the middle of the cornea was removed after superficial anesthesia. A dextran solution of 200 g/L with 1 g/L riboflavin sodium phosphate was dropped to corneal surface in batches. The location of the riboflavin diffused into the corneal surface was observed by cobalt blue light of a slit lamp. Digital corneal crosslinking device was used to selectively irradiate the local area of the cornea. The light's wavelength is 365 nm, the irradiation area is the same like that in example 1, the light power is 1.2 mW/cm^2, irradiation time is 5 minutes.
as §1, with “of 5-9” for “of 7”, “g/L eosin Y” for “g/L riboflavin”, “the eosin Y” for “the riboflavin”, “is 550” for “is 365”, “FIG. 3,” for “FIG. 2,”
During irradiation process, the eosin Y solution and superficial anesthesia were used to wash the corneal surface in phases. Antibiotic eye formulations were applied to the eye and corneal contact lens were used until the corneal epithelium was healed.
as §1, with “tissue” for “tissue of an area of 7 mm diameter in the middle”, “removed and a” for “removed after superficial anesthesia. A”, “FIG. 4,” for “FIG. 2,”
The epithelial tissue of the cornea was kept intact and a dextran solution of 200 g/L with 1.5 g/L EDTA sodium and 1.5 g/L riboflavin was dropped to corneal surface in batches. The location of the riboflavin diffused into the corneal surface was observed by cobalt blue light of a slit lamp. Digital corneal crosslinking device was used to selectively irradiate the local area of the cornea.

**Q.** For `O=C([O-])c1ccccc1-c1c2cc(Br)c(=O)c(Br)c-2oc2c(Br)c([O-])c(Br)cc12.[Na+].[Na+]` [eosin Y], which corneal surface curvature (Example 3: epithelium removed (5-9 mm), dextran solution 200 g/L with 1 g/L eosin Y, 550 nm, irradiation area of FIG. 3, 1.2 mW/cm^2, 5 minutes) is on record?
**A.** The corneal surface curvature was “decreased”.

**Q.** With `Cc1cc2nc3c(=O)[nH]c(=O)nc-3n(C[C@H](O)[C@H](O)[C@H](O)CO)c2cc1C` [riboflavin] as the compound, how does the corneal surface curvature (Example 1: epithelium removed (7 mm), dextran solution 200 g/L with 1 g/L riboflavin, 365 nm, irradiation area of FIG. 2, 1.2 mW/cm^2, 5 minutes) read?
**A.** Its corneal surface curvature is “increased”.

**Q.** What about the corneal curvature (Example 4: epithelium removed, dextran solution 200 g/L with 1 g/L riboflavin, 365 nm, irradiation area of FIG. 4, 1.2 mW/cm^2, 5 minutes) of the same compound?
**A.** The corneal curvature was “locally changed”.

**Q.** And the “result (corneal surface curvature)” value (Example 5: epithelium kept intact, dextran solution 200 g/L with 1.5 g/L EDTA sodium and 1.5 g/L riboflavin, 365 nm, irradiation area as example 1, 1.2 mW/cm^2, 10 minutes)?
**A.** Its value is “the same as example 1”.

**Q.** How did the corneal surface curvature (Example 2: epithelium removed (7 mm), dextran solution 200 g/L with 1 g/L riboflavin sodium phosphate, 365 nm, irradiation area as example 1, 1.2 mW/cm^2, 5 minutes) turn out when `Cc1cc2nc3c(=O)[nH]c(=O)nc-3n(C[C@H](O)[C@H](O)[C@H](O)COP(=O)(O)O)c2cc1C` [riboflavin sodium phosphate] was run?
**A.** The corneal surface curvature was “the same as example 1”.
